Results as given in patent publication US7655801B2, “Substituted carbamic acid quinolin-6-yl esters useful as acetylcholinesterase inhibitors” (priority 2004, dated 2010).

Tests used:
[1] = test system: scopolamine induced deficit (dementia/amnesia) in mice; experiment: Scopolamine induced amnesia, single trial passive avoidance test; format: in vivo; conditions: test compounds 20 μmol/kg orally, donepezil 10 mg/kg po; for % Learning ([2nd Trial − 1st trial/1st trial] × 100): scopolamine group 33.6, trained control 274.9; for change in vivo at 20 µmol/kg: Mus musculus, read-out: % Improvement in Learning (% Learning in treated gp − % Learning in Scopolamine gp)
Description: Single trial passive avoidance is widely used as experimental test to assess learning memory functions in rodents.
Passive Avoidance Test (in vivo): Study was conducted in adult Swiss male mice of 3-4 months (wt. 20-25 g) which were kept in standard housing condition with 12 h light and dark cycle. Food and water were available ad libitum. […] Passive avoidance test was studied by a computerized shuttle box (Columbus Instruments, Ohio, USA) provided with a software program PACS 30. The shuttle box comprises of two compartments, isolated by an automated door. […] Each mouse was placed in the bright compartment and on transfer into the dark compartment it was given an electric shock (0.5 mA for 5 s) through floor grid. Transfer of mice from bright to dark compartment was recorded as transfer latency time (TLT) in seconds. TLT was recorded in control and treated groups (1st Trial, acquisition) and then after 24 hours (2nd Trial, retention). An increase in the TLT on 2nd Trial (retention) as compared to 1st Trial (acquisition) was taken as the criterion for successful learning and memory (cognitive activity).
Scopolamine induced deficit (Dementia): Scopolamine a muscarinic antagonist, known to produce impairment in cognitive functions (dementia) in human as well as in experimental animals, was used to produce deficit (no significant increase on 2nd trial) in passive avoidance learning. Scopolamine was administered 5 min prior to 1st trial. Reversal of scopolamine induced deficit i.e. significant increase in 2nd trial by test substance indicates potential anti-dementia activity. […].
Drug administration: Scopolamine was administered 5 min prior to 1st trial in test group. Each test compound was administered orally in dose of 20 μmol/kg (1% aq. suspension in gum acacia) 1 hour prior to 2nd trial in scopolamine treated mice (n=5). Scopolamine control group received 1 ml/kg of vehicle (1% aq. suspension in gum acacia) orally. […] Donepezil (10 mg/kg, po, as 1% aqueous suspension in gum acacia) was used as standard drug and given 1 hour prior to 2nd trial in scopolamine treated mice.
Statistical analysis: Mean values and standard error (S.E.) of mean were calculated for TLT and specific activity of AChE in the different regions of brain samples of each group. The significance of difference between the values of AChe activity and TLT between the groups was determined by one-way ANOVA test that followed by Dunnett's test.

[2] = target: T1, AChE (Rattus norvegicus, UniProt P37136); experiment: Inhibitive effect on acetylcholinesterase activity (Ellman method, rat brain homogenate supernatant); format: biochemical; conditions: for Cholinesterase Enzyme Activity in presence of active drug: control AChE activity 0.014446; for % Cholinesterase Enzyme Activity in presence of active drug: relative to control AChE activity
T1 construct: Aliquots of this supernatant was diluted in the ratio of 1:10 and used as a source of enzyme for the assay; from tissue; host or cells: whole brain of adult male SD rats; 10% homogenate with Triton X-100, 100,000 x g supernatant
T1 sequence (P37136 32-614): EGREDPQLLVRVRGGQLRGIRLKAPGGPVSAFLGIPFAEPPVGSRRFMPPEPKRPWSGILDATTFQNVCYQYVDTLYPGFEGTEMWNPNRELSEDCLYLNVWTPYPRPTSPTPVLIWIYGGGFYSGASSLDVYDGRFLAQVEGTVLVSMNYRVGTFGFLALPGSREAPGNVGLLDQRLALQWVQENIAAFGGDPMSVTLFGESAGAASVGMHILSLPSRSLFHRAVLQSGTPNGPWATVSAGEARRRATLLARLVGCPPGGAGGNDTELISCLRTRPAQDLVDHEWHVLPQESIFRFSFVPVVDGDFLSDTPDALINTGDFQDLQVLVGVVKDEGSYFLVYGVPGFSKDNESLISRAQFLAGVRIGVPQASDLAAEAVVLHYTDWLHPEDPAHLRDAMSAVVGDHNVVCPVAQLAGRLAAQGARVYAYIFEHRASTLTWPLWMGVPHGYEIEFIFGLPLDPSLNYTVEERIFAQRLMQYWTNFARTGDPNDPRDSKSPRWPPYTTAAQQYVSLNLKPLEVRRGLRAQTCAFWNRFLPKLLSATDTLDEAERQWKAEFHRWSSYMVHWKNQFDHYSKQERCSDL
Description: The study was conducted in adult SD male rats (200-250 g) Rats were perfused under mild ether anesthesia through heart with ice cooled normal saline (0.9% NaCl) to reduce blood-borne cholinesterase from brain. After perfusion whole brain was taken out. 10% (w/v) homogenate of brain was prepared first by homogenizing in Ultra-Turrax T25 homogenizer at a speed of 9500 rpm thrice giving intervals for few seconds in between the runs, with sodium phosphate buffer (30 mmol/lit, pH 7.0). Sodium phosphate buffer was taken in a volume half to the final volume required for 10% homogenate. 1% Triton X-100 (1% w/v in 30 mmol/lit. sodium phosphate buffer, pH 7.0) is then added in a volume to make the final volume for 10% homogenate, slowly while stirring the homogenate on ice.
Kinetic profile of the enzyme activity was studied spectrophotometrically at 412 nm at an interval of 15 s. Assay for each sample was run in duplicate and each experiment was performed thrice.
[…] Tacrine (1 μmol) was used as standard AChe inhibitor (standard control). The AChe inhibitory activity was calculated on the basis of % decrease change from control values i.e. AChe acivity without incubation with any standard or test drug.

[3] = scopolamine treated mice, 1 hour prior to 2nd trial

CCCCCCCNC(=O)Oc1ccc2ncccc2c1 [1b, Heptyl-Carbamic Acid quinolin-6-yl ester]
2nd TRIAL (retention, after 24 hours) transfer latency time (TLT) [1, 3]: 238 s | % Learning ([2nd Trial − 1st trial/1st trial] × 100) ([1]; scopolamine treated mice): 140.4% | % Improvement in Learning (% Learning in treated gp − % Learning in Scopolamine gp) [1]: 106.8%

O=C(Nc1ccccc1Cl)Oc1ccc2ncccc2c1 [1c]
1st TRIAL (acquisition) transfer latency time (TLT) [1, 3]: 89.6 s | 2nd TRIAL (retention, after 24 hours) transfer latency time (TLT) [1, 3]: 230 s | % Learning ([2nd Trial − 1st trial/1st trial] × 100) ([1]; scopolamine treated mice): 156.7% | % Improvement in Learning (% Learning in treated gp − % Learning in Scopolamine gp) [1]: 123.09%

O=C(Nc1cccc(Br)c1)Oc1ccc2c(c1)CCCN2 [2c, (3-Bromo-phenyl)-carbamic acid 1,2,3,4-tetrahydro-quinolin-6-yl ester]
2nd TRIAL (retention, after 24 hours) transfer latency time (TLT) [1, 3]: 195 s | % Learning ([2nd Trial − 1st trial/1st trial] × 100) ([1]; scopolamine treated mice): 101% | % Improvement in Learning (% Learning in treated gp − % Learning in Scopolamine gp) [1]: 67.4%

CCCCCCNC(=O)Oc1ccc2c(c1)CCCN2Cc1ccccc1 [2h, Hexyl-carbamic acid 1-benzyl-1,2,3,4-tetrahydro-quinolin-6-yl ester]
2nd TRIAL (retention, after 24 hours) transfer latency time (TLT) [1, 3]: 205 s | % Learning ([2nd Trial − 1st trial/1st trial] × 100) ([1]; scopolamine treated mice): 122.8% | % Improvement in Learning (% Learning in treated gp − % Learning in Scopolamine gp) [1]: 89.2%

O=C(Nc1ccccc1Cl)Oc1ccc2c(c1)CCCN2Cc1ccccc1 [2i, (2-Chloro-phenyl)carbamic acid 1-benzyl-1,2,3,4-tetrahydro-quinolin-6 yl ester]
Cholinesterase Enzyme Activity in presence of active drug ([2]; drug conc. 0.1 μm): 0.01351 μmol/mg of protein/min | % Cholinesterase Enzyme Activity in presence of active drug ([2]; drug conc. 0.1 μm): 93.54% | Cholinesterase Enzyme Activity in presence of active drug ([2]; drug conc. 0.3 μm): 0.01211 μmol/mg of protein/min | % Cholinesterase Enzyme Activity in presence of active drug ([2]; drug conc. 0.3 μm): 83.87% | Cholinesterase Enzyme Activity in presence of active drug ([2]; drug conc. 1 μm): 0.01071 μmol/mg of protein/min | % Cholinesterase Enzyme Activity in presence of active drug ([2]; drug conc. 1 μm): 74.19% | Cholinesterase Enzyme Activity in presence of active drug ([2]; drug conc. 3 μm): 0.007456 μmol/mg of protein/min | Cholinesterase Enzyme Activity in presence of active drug ([2]; drug conc. 10 μm): 0.001864 μmol/mg of protein/min | % Cholinesterase Enzyme Activity in presence of active drug ([2]; drug conc. 10 μm): 12.90% | % Cholinesterase Enzyme Activity in presence of active drug [2]: 51.61% | 2nd TRIAL (retention, after 24 hours) transfer latency time (TLT) [1, 3]: 186.4 s | % Learning ([2nd Trial − 1st trial/1st trial] × 100) ([1]; scopolamine treated mice): 123.2% | % Improvement in Learning (% Learning in treated gp − % Learning in Scopolamine gp) [1]: 89.6%

CN1CCCc2cc(OC(=O)Nc3ccc(Cl)c(C(F)(F)F)c3)ccc21 [2q, (4-Chloro-3-trifluoromethyl-phenyl)-carbamic acid 1-methyl-1,2,3,4-tetrahydro-quinolin-6-yl ester]
change in vivo at 20 µmol/kg ([1]; scopolamine treated mice): 76% | 2nd TRIAL (retention, after 24 hours) transfer latency time (TLT) [1, 3]: 218 s | % Learning ([2nd Trial − 1st trial/1st trial] × 100) ([1]; scopolamine treated mice): 109%

CN1CCCc2cc(OC(=O)Nc3ccc(Br)cc3)ccc21 [2r, (4-bromophenyl)carbamic acid 1-methyl-1,2,3,4-tetrahydroquinolin-6-yl ester]
change in vivo at 20 µmol/kg ([1]; scopolamine treated mice): 62% | 2nd TRIAL (retention, after 24 hours) transfer latency time (TLT) [1, 3]: 242 s | % Learning ([2nd Trial − 1st trial/1st trial] × 100) ([1]; scopolamine treated mice): 95.6%

COc1cc2c(cc1OC)C(=O)C(CC1CCN(Cc3ccccc3)CC1)C2 (centres unmarked) [DONEPEZIL, donepezil, reference compound]
2nd TRIAL (retention, after 24 hours) transfer latency time (TLT) [1, 3]: 245 s | % Learning ([2nd Trial − 1st trial/1st trial] × 100) ([1]; scopolamine treated mice): 168% | % Improvement in Learning (% Learning in treated gp − % Learning in Scopolamine gp) [1]: 134.4%
